Measured values published in ChEMBL document CHEMBL3507680, “University of Dundee, Gates Library screen for HepG2 cell viability”.

Test: Human HepG2 cell viability assay in 384 well format
Type: toxicity, cell-based
Parameters: dose 125 nL, time 70.5 hour; cytotoxicity at 70.5 h: concentration not given beside the values
Conditions: HepG2 cells, read-out: Inhibition

Row | Compound | cytotoxicity at 70.5 h [%]
1 | Cc1n[nH]c2c1C(c1ccncc1)SCC(=O)N2 (stereo unspecified) | 19.3
2 | Cc1nn(-c2ccccn2)c2c1C(c1cnn(C)c1)SCC(=O)N2 (stereo unspecified) | -27.3
3 | COC(=O)c1ccc(C2SCC(=O)Nc3c2cnn3C(C)(C)C)cc1 (stereo unspecified) | -13.2
4 | CC(C)(C)n1ncc2c1NC(=O)CC2c1cccs1 (stereo unspecified) | -6.21
5 | CCn1cc(-c2nn3c(C(C)C)nnc3s2)c(C)n1 | -14.2
6 | Cc1nn(C2CCS(=O)(=O)C2)c(O)c1Cc1ccccc1Cl (stereo unspecified) | -18.5
7 | O=c1c(NCCO)c(N2CCN(c3ccccc3)CC2)c1=O | -4.94
8 | CC(C)CNC(=O)CNc1c(NCc2ccccn2)c(=O)c1=O | 2.45
9 | Cc1nn(C2CCS(=O)(=O)C2)c(O)c1Cc1ccccc1 (stereo unspecified) | -16.5
10 | Cc1nn(C2CCS(=O)(=O)C2)c(O)c1CCc1ccccc1 (stereo unspecified) | -8.16
11 | COc1c[nH]c(C(=O)Nc2nc(C)cs2)cc1=O | -5.81
12 | Cc1cc(NC(=O)C(C#N)Cc2cnn(C)c2C)no1 (stereo unspecified) | -13.8
13 | O=c1c(NCCNCCO)c(N2CCN(c3ccc(F)cc3)CC2)c1=O | -7.08
14 | COc1cccc2c1ccn2CCC(=O)Nc1c2c(nn1C)CSC2 | -11.9
15 | CC(C)C1Nc2ccccc2C(=O)N1CC(=O)Nc1nc2c(s1)CCC2 (stereo unspecified) | -15.3
16 | Cc1nn(C2CCS(=O)(=O)C2)c(O)c1Cc1cccc(Cl)c1 (stereo unspecified) | -17.9
17 | CC(C)NC(=O)Nc1ccc2c(c1)ncn2CC(=O)NCCN(C)C | -12.7
18 | O=c1c(NCc2ccncc2)c(NCC(O)CN2CCOCC2)c1=O (stereo unspecified) | -17.9
19 | CN(C)CCNC(=O)Cn1cnc2cc(NC(=O)C3CC3)ccc21 | -10.6
20 | CC(C)(CO)Nc1c(NCc2ccncc2)c(=O)c1=O | -9.44
21 | Cc1cccc2c1ccn2CCC(=O)Nc1c2c(nn1C)CSC2 | -7.62
22 | CC1CC(=O)c2cc(C(=O)N3CCN(C)CC3)c(=O)[nH]c2C1 (stereo unspecified) | -5.53
23 | O=c1c(NCCNCCO)c(N2CCN(c3ccccc3)CC2)c1=O | -6.86
24 | CC(C)(CO)Nc1c(NCc2ccccn2)c(=O)c1=O | -8.21

Row | Compound | cytotoxicity at 70.5 h [%]
25 | CC(C)CC(=O)Nc1ccc2c(c1)ncn2CC(=O)NCCN(C)C | -6.17
26 | CC(C)c1nnc(NC(=O)CN2C(=O)c3ccccc3NC2C(C)C)s1 (stereo unspecified) | -13
27 | COc1cc(OC)cc(-c2noc(CC(N)c3ccccc3)n2)c1 (stereo unspecified) | -5.26
28 | COc1c[nH]c(C(=O)Nc2nc(C(C)(C)C)cs2)cc1=O | -0.552
29 | CC(C)CNC(=O)c1cccc(Oc2ccc3nncn3n2)c1 | -9.71
30 | Cn1ccc2cc(C(=O)NC3CCOC(C)(C)C3)ccc21 (stereo unspecified) | 7.49
31 | COc1cc(C2SC(C)=Nc3c2c(=O)[nH]n3C2CCCC2)ccc1O (stereo unspecified) | -9.1
32 | Cc1cc(N2CCCCC2)nc(N(CCO)CCO)c1C#N | -8.15
33 | Cc1cc(NCc2ccccc2)nc2[nH]nc(N)c12 | -12.7
34 | O=C(Cn1nc2c(cc1=O)CSCC2)N[C@@H](Cc1ccccc1)C(=O)O | -5.32
35 | COCCn1ccc(=O)c(OCC(=O)Nc2ccc(OC)cc2)c1C | -12
36 | Cn1[nH]c(CNc2cccc(Cl)c2)nc1=O | -0.326
37 | Cc1cc(N2CCOCC2)nc(N(C)CCO)c1C#N | -5.45
38 | COc1ccc(-c2csc3c2c(N)nc(=O)n3CC(N)=O)cc1 | -14.6
39 | O=C1CC(c2ccsc2)c2cnn(C3CCCC3)c2N1 (stereo unspecified) | -9.93
40 | CCOC(=O)Cn1c(=O)nc(N)c2c(-c3ccc(OC)cc3)csc21 | -12.9
41 | CN(C)S(=O)(=O)c1ccc(-c2nc(C#N)c(NC3CCCCC3)o2)o1 | -9.49
42 | O=C(Cn1ncc2c(c1=O)CCCCC2)Nc1cccc2[nH]ccc12 | 3.91
43 | Cn1cc(NC(=O)CNC(=O)N2CCN(c3cccc(Cl)c3)CC2)cn1 | -4.74
44 | CC1=Nc2c(c(=O)[nH]n2C2CCCCC2)C(c2cccnc2)S1 (stereo unspecified) | -12
45 | CC1=Nc2c(c(=O)[nH]n2C(C)C)C(c2ccc3c(c2)OCCO3)S1 (stereo unspecified) | 7.71
46 | C=C(C)CN1CCN(CCC(=O)Nc2ccccc2C(N)=O)CC1 | -10.8
47 | Cc1nnc(NC(=O)CCc2c(C)nn3cnnc3c2C)s1 | -7.03
48 | N[C@H]1CN(C(=O)CCC(F)(F)F)C[C@@H]1c1ccccc1 | -5.15

Row | Compound | cytotoxicity at 70.5 h [%]
49 | Cc1ccnc(OCC(=O)N2CCN(c3ncccn3)CC2)n1 | -12.6
50 | Cc1nc(C)c(C(=O)NCCNc2cc(N3CCCC3)ncn2)s1 | 9.32
51 | O=C(c1cncc(N2CCC3(CC2)NCCNC3=O)n1)N1CCCCC1 | -4.89
52 | CCC(NC(=O)C(C)C)c1ccccc1C (stereo unspecified) | -5.31
53 | CCN1CCCC(CNC(=O)C2(c3cc(C)cc(C)c3)CCC2)C1 (stereo unspecified) | 28.2
54 | CCNc1cc2c(nn1)CCN(C(=O)C(C)c1c(C)noc1C)C2 (stereo unspecified) | -4.66
55 | CC(NC(=O)NCC1(c2ccc(F)cc2)CCCC1)c1nncn1C (stereo unspecified) | -3.48
56 | O=C(CCn1cncn1)NC1CCc2nccn2C1 (stereo unspecified) | -0.747
57 | COCCN1CCN(C(C)c2nc(C3CC3)no2)CC1 (stereo unspecified) | 17
58 | Cc1noc(C(C)N2CCN(CCOCC(F)(F)F)CC2)n1 (stereo unspecified) | 27.9
59 | CCOCCN1CCN(C(C)c2nc(C3CC3)no2)CC1 (stereo unspecified) | 12.1
60 | CCOc1ncccc1NC(=O)N1CCCN(C(=O)OC)CC1 | -0.675
61 | Cc1cc(C2CCCN(C(=O)Cc3csc(C(C)C)n3)C2)n[nH]1 (stereo unspecified) | -5.03
62 | CC(C)CC(=O)Nc1cccc(CNCc2cccs2)c1 | -3.67
63 | CCOc1ncccc1NC(=O)N1CCN(c2ccc(O)cc2)CC1 | 1.58
64 | Cc1ccccc1C(C)N(C)Cc1nc2c(cnn2C)c(=O)[nH]1 (stereo unspecified) | -6.49
65 | CN(CC(=O)N1CCC(N(C)c2ccccc2)CC1)c1cnccn1 | 0.531
66 | CCOc1ccc(OCCN2CCC(N3CCNC3=O)CC2)cc1 | 19
67 | CC1CN(C)CCN1CC(=O)NCCOc1cccc(F)c1 (stereo unspecified) | -1.27
68 | Clc1ccc(CN2CCCCC2Cn2cncn2)c2ncccc12 (stereo unspecified) | -0.976
69 | CC(C)c1ccc(OCCNC(=O)CN2CCN(C)CC2C)cc1 (stereo unspecified) | 1.16
70 | CCN1CCOC(CNCc2ccccc2OCc2ccncc2)C1 (stereo unspecified) | 14.2
71 | CNc1nc(CNC(=O)Nc2cccc(OC)c2)cs1 | -0.727
72 | CNc1nc(CNC(=O)Nc2cccc(-c3ncc(C)o3)c2)cs1 | 9.47

Row | Compound | cytotoxicity at 70.5 h [%]
73 | CNc1nc(CNC(=O)Nc2cccc(CSC)c2)cs1 | -3.79
74 | COc1ccc(CC(=O)N2CCCC(c3cc(C)[nH]n3)C2)cc1 (stereo unspecified) | -3.16
75 | CNc1nc(CNC(=O)Nc2cccc(C(C)OC)c2)cs1 (stereo unspecified) | -4.31
76 | CC(=O)NCCNC(=O)CN1CCOC(Cn2cccn2)C1 (stereo unspecified) | 0.989
77 | Cn1cc(CCNC(=O)NCc2ccc3c(c2)OCCO3)cn1 | 2.32
78 | CN(Cc1cccc(F)c1)C(=O)c1cc2c([nH]c1=O)CCCC2=O | 2.65
79 | CN(Cc1ccc2c(c1)OCO2)C(=O)NCCc1cnn(C)c1 | -3.13
80 | CC(NC(=O)NCCCn1cncn1)c1ccc(C(F)(F)F)cc1 (stereo unspecified) | -7.5
81 | CC(NC(=O)NCCCn1cncn1)c1ccc(F)cc1 (stereo unspecified) | -4.64
82 | O=C1CCCc2[nH]c(=O)c(C(=O)N(Cc3ccsc3)C3CC3)cc21 | -1.04
83 | CC(C)(C)c1nc(CN2CCN(C(=O)c3cnccn3)CC2)cs1 | -1.47
84 | CN(Cc1cnn(C)c1)C(=O)NCc1ccc2c(c1)OCCO2 | 0.47
85 | COCCCNC(=O)CN(C)C(=O)c1ccc(-n2cccc2)cc1O | -0.626
86 | Cc1ccsc1CN(C)C(=O)c1cc2c([nH]c1=O)CCCC2=O | -7.76
87 | Cc1csc(N2CCN(CC(=O)N3CCNC3=O)CC2C)n1 (stereo unspecified) | 12
88 | Cc1csc(N2CCN(CC(=O)Nc3ccncc3)CC2C)n1 (stereo unspecified) | 9.84
89 | Cc1csc(N2CCN(CC(=O)Nc3cc(C)nn3C)CC2C)n1 (stereo unspecified) | 2.09
90 | OCCn1cc(CN2CCN(CCOc3ccc(F)cc3)CC2)cn1 | -2.54
91 | OCCn1cc(CN2CCN(CCOc3cccc(F)c3)CC2)cn1 | 1.71
92 | Cc1csc(CNC(=O)N(C)Cc2ccncc2)n1 | -0.603
93 | Cc1ccc(N(CCC#N)C(=O)CN2CCCC2c2ccsc2)cc1C (stereo unspecified) | 0.542
94 | COCCCNC(=O)CN(C)C(=O)c1cc2cc(C)ccc2nc1C | 3.78
95 | CCN(CC)Cc1ccc(C(=O)N2CCCC2Cn2cc(C)cn2)o1 (stereo unspecified) | 2.44
96 | CCN(CC)Cc1ccc(C(=O)N2CCCC2Cn2cccn2)cc1 (stereo unspecified) | -7.71

Row | Compound | cytotoxicity at 70.5 h [%]
97 | Cc1ccsc1CNC(=O)N(C)Cc1cnn(C)c1 | -12.7
98 | CCN(CC)Cc1ccc(C(=O)N2CCCC2Cn2cccn2)o1 (stereo unspecified) | -1.33
99 | O=C(CN1CCOC(CNc2cccnn2)C1)NCc1cccs1 (stereo unspecified) | -0.0167
100 | CN(Cc1cnn(C)c1)C(=O)NCCc1ccc2c(c1)OCCO2 | -2.65
101 | Cn1c(CN2CCCC(Cn3cncn3)C2)nc2ccccc21 (stereo unspecified) | 28.9
102 | c1ccc2nc(CN3CCCC3c3noc(C4CC4)n3)ccc2c1 (stereo unspecified) | 21.2
103 | Cc1nc(C2CCCN2C(=O)c2ccc(N(C)C)nn2)no1 (stereo unspecified) | 25.8
104 | CSc1ccc(CNC(c2ccc(F)cc2)c2nccn2C)cc1 (stereo unspecified) | 0.212
105 | COc1cc(CNC(c2ccccc2)c2nccn2C)cc(OC)c1 (stereo unspecified) | 0.143
106 | CCCOc1ncccc1CNc1nnc(C)c(C)c1C#N | 21.8
107 | CC1CN(CC(=O)NCc2ccccn2)CCN1Cc1nccn1C (stereo unspecified) | -3.22
108 | CCc1nnc2n1CCN(Cc1cc(Cl)c3c(c1)OCCO3)C2 | 21.4
109 | CC1CN(CC(=O)Nc2nccs2)CCN1Cc1nccn1C (stereo unspecified) | -6.31
110 | C=C(C)CN1CCN(Cc2nccn2C)C(C)C1 (stereo unspecified) | 30.2
111 | CC1CN(CC(=O)NC(C2CC2)C2CC2)CCN1Cc1nccn1C (stereo unspecified) | -3.28
112 | Cc1nnc2n1CCN(Cc1ccc3c(c1)OCCO3)C2 | -2.45
113 | CC1CN(CC(=O)NCc2ccccc2)CCN1Cc1nccn1C (stereo unspecified) | 0.503
114 | O=c1[nH]c(CN2CCCC(Cn3cncn3)C2)nc2ccccc12 (stereo unspecified) | -4.42
115 | CC(C)n1c(=O)c2ccccc2n(CCN(C)C)c1=O | -8.7
116 | O=C(Nc1cccc(CNCc2ccsc2)c1)C1CC1 | 7.14
